In US6620779B2, “Method of enhancing the efficacy of anti-tumor agents” (Health Research Inc., priority 1999, dated 2003):
Entries after “also recorded” stand apart in the source; their conditions may differ.

What was measured:
[1] = Automated hematocrits from tail bleeds of tumor-bearing SCID mice; assay type: in vivo, CB 17-SCID/SCID mice; set-up: Hematocrits: unit not given here; details: for Hematocrits: mice bearing small subcutaneous tumors
Method: Automated hematocrits were obtained from tail bleeds performed on three mice selected randomly from each group on days −15, −7, 0, and +7. No mouse was bled twice. On day 7, mice were sacrificed and necropsies were performed. Tumors were excised and measured in three dimensions with vernier calipers. Tumor volume was calculated as follows.
(§1) In another illustration of this embodiment, cisplatin was administered twice during the treatment. In additional forty experimental mice at six weeks of age, 2 mm portions of human ovarian cancer xenografts were implanted. Treatment groups were randomly assigned three days after implantation. Group I animals (controls) received 100 μl of PBS three times per week subcutaneously from day −15 to day +13 and 300 μl PBS ip on day 0 and 7. Mice in Group II (EPO group) received EPO subcutaneously at a dose of 20 units in 100 μl of PBS three times per week from day −15 to day +13 and 300 μl of PBS ip on day 0 and 7. Mice in Group III (cisplatin group) received cisplatin ip at a dose of 5 mg/kg in 300 μl of PBS on day 0 and 7, and 100 μl of subcutaneous PBS three times per week from day −15 to day +13. Mice in Group IV (EPO+cisplatin group) received subcutaneous EPO injections as in group 2 three times per week from day −15 to day +13 and ip cisplatin injections as in group 3 on day 0 and 7. Mice were observed until day +15.
Automated hematocrits were obtained as described above on days −15, −7, 0, +7, and +14. The change in hematocrit relative to the initial hematocrit was plotted over time. Serial measurements of tumor nodules were made in two dimensions using vernier calipers starting on day zero. On day zero, tumors had grown to approximately 4 mm×5 mm in size in each group. Tumor volumes were calculated on days 0, +1, +3, +5, +7, +9, +11, +13 and +15 using the formula.
Percent tumor growth was calculated for each index day compared to day 0 and plotted over time. Statistical analysis included Student T tests for the overall tumor growth in the large GFP tumor experiment. The growth curves developed in the smaller subcutaneous tumor group and the curves representing change in the hematocrit over time were analyzed by analysis of variance. Significance was defined by P values less than 0.05.

[2] = Performance status (morbidity/mortality criteria) of treated tumor-bearing mice; assay type: in vivo, CB 17-SCID/SCID mice; set-up: key to Performance status score, individual mice: A grade of 0 equaled normal health; a grade of 5+ equaled death; details: for Performance status score, individual mice: mouse no. 1-10, Table 2 (counts match day +14)
Method: To illustrate this embodiment, performance status of mice from Example 1 receiving the various treatments was evaluated. Performance status was assessed on days 0, +7, and +14 using five objective criteria associated with morbidity and mortality in experimental mice. The five criteria were (1) ruffled fur; (2) weakness/lethargy; (3) 20% weight loss compared to the mean weight of control animals; (4) kyphotic hunched posturing; and (5) death. A grade of 0 equaled normal health and a grade of 5+ equaled death.

[3] = tested on: human ovarian cancer xenografts (papillary serous adenocarcinoma of the ovary); assay: Large gonadal fat pad (GFP) human ovarian cancer xenograft in SCID mice, single cisplatin dose, tumor growth; assay type: in vivo, CB 17-SCID/SCID mice; details: large GFP tumors; cisplatin 5 mg/kg ip day 0; EPO 20 units sc three times per week day −15 to +6; necropsy day 7
Method: To illustrate this embodiment, experiments were carried out in immunodeficient SCID mice bearing human ovarian cancer.
Eighty CB 17-SCID/SCID mice (Taconic Labs) were used. The animals were kept under sterile and light-controlled conditions. Portions of tumors from patients with recurrent stage IIIC, grade 3, papillary serous adenocarcinoma of the ovary were implanted and propagated in SCID mice by procedures well known to those skilled in the art. Briefly, xenografts were grown and passaged at least five times prior to the implantation of tumors into experimental animals. […]
Automated hematocrits were obtained from tail bleeds performed on three mice selected randomly from each group on days −15, −7, 0, and +7. […] Tumors were excised and measured in three dimensions with vernier calipers. Tumor volume was calculated as follows. […]
The percent growth of the tumor was calculated using the formula: […]
(§2) Percent tumor growth was calculated for each index day compared to day 0 and plotted over time. […] The growth curves developed in the smaller subcutaneous tumor group and the curves representing change in the hematocrit over time were analyzed by analysis of variance. […]

[4] = tested on: human ovarian cancer xenografts; assay: Small subcutaneous human ovarian cancer xenograft in SCID mice, cisplatin on day 0 and 7, tumor growth curves; assay type: in vivo, CB 17-SCID/SCID mice; details: subcutaneous tumor nodules; cisplatin 5 mg/kg ip day 0 and 7; EPO 20 units sc three times per week day −15 to +13; to day +15; FIG. 1
Method: as §1, with “Mice in Group IV (EPO+cisplatin group) received subcutaneous EPO injections as in group 2 three times per week from day −15 to day +13 and ip cisplatin injections as in group 3 on day 0 and 7. Mice were observed until day +15.” left out
Automated hematocrits were obtained as described above on days −15, −7, 0, +7, and +14. […] Tumor volumes were calculated on days 0, +1, +3, +5, +7, +9, +11, +13 and +15 using the formula. […]
as §2

[5] = in vivo; cited from earlier work

Row | Compound | Hematocrits ([1]; Week 0) | Hematocrits ([1]; Week +1) | Hematocrits ([1]; Week +2) | Hematocrits ([1]; Week −1) | Hematocrits ([1]; Week −2 (initial value)) | Decrease in the hematocrit ([1]; over time vs initial value, FIG. 2) [%] | Mice with 20% weight loss compared to controls ([2]; day +7, 10 mice per group) | Mice with ruffled fur ([2]; day +7, 10 mice per group) | Mice with signs of weakness/lethargy ([2]; day +7, 10 mice per group) | Mice with hunched posturing ([2]; day +14, 10 mice per group) | Mortalities ([2]; day +14, 10 mice per group) | Performance status score, individual mice [2] | Tumor growth (percent tumor growth, tumor size at necropsy) [3] | Tumor growth curves (percent tumor growth vs day 0) [4] | Increase in the hematocrit compared to its initial value ([1]; vs week −2, p<0.01 vs controls, FIG. 2) | Half life in the plasma [5] | Performance status scores ([2]; day +7, all mice of the group) | Performance status score, Total ([2]; sum over 10 mice, Table 2)
1 | N.N.[Cl][Pt][Cl] [CISPLATIN, cis-diamine dichloro platinum] | 39.8 ± 0.3 | 40.7 ± 0.1 | 33.1 ± 0.3 | 39.8 ± 0.2 | 39.8 ± 0.2 | 20 | 6 | all | all | 3 | 4 | + + +; also recorded: + + + +; also recorded: + + + + + | significant difference in the tumor growth was observed in the groups treated with and without cisplatin |  |  |  |  | 
2 | EPO: erythropoietin, hormone regulating red blood cell production; used as hematocrit elevator | 48.9 ± 0.3 | 49.3 ± 0.3 | 53.6 ± 0.4 | 44.9 ± 0.2 | 39.5 ± 0.2 |  |  |  |  |  |  | 0 | No difference was observed between the controls and the EPO group | no difference was observed between the controls and the EPO group | 25-35% | about 5 hours | zero | 0
